Data: patent US7476764B2, “Phenylcarboxyamides as beta-secretase inhibitors” (Bristol-Myers Squibb Company, priority 2005, dated 2009)
Structures can show the parent of a compound that is named as a salt.

Molecular target: T1, BACE1 enzyme (Homo sapiens, UniProt P56817)
T1 construct: The HEK293-9B.A1 cell line, which overexpresses the BACE1 enzyme, was derived from HEK293 cells; endogenous in cells; washed 48,000 x g pellet of the cell homogenate
Experiment: Radioligand displacement assay with a radiolabeled BACE inhibitor on HEK293-9B.A1 cell homogenate
Format: binding
Settings: displacement of 1 nM tritiated radioligand, HEK293-9B.A1 homogenate, pH 5.0, 1.5 hr at 25° C.; read-out: Activity Rating (activity based on IC50 values)

T1 sequence (P56817 46-501): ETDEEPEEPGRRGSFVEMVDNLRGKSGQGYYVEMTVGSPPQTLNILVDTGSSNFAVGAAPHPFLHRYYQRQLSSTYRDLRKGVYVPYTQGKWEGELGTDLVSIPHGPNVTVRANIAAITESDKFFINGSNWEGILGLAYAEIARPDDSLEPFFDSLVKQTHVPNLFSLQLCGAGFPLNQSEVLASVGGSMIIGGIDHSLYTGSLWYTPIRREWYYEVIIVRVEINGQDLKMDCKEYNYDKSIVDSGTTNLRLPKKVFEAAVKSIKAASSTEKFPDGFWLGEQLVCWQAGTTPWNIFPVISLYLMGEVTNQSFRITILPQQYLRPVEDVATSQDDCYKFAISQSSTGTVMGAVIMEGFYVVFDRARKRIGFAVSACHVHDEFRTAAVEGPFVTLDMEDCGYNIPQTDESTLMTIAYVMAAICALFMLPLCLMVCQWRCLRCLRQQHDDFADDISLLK

Row | SMILES | IC50
1 | COc1cccc(CNC[C@@H](O)[C@H](Cc2cc(F)cc(F)c2)NC(=O)c2cc(C(C)=O)cc(C(=O)NC(C)c3ccc(F)cc3)c2)c1 (stereo partly drawn) [Example 47, N^1-((2S,3R)-4-(3-methoxybenzylamino)-1-(3,5-difluorophenyl)-3-hydroxybutan-2-yl)-5-acetyl-N^3-(1-(4-fluorophenyl)ethyl)isophthalamide TFA salt] | < 100 nM
2 | COc1cccc(CNC[C@@H](O)[C@H](Cc2cc(F)cc(F)c2)NC(=O)c2cc(C(=O)NC(C)c3ccc(F)cc3)cc(C(C)O)c2)c1 (stereo partly drawn) [Example 48, N^1-((2S,3R)-4-(3-methoxybenzylamino)-1-(3,5-difluorophenyl)-3-hydroxybutan-2-yl)-N^3-(1-(4-fluorophenyl)ethyl)-5-(1-hydroxyethyl)isophthal-amide TFA salt] | < 100 nM
3 | C=CCO/N=C(/C)c1cc(C(=O)NC(C)c2ccc(F)cc2)cc(C(=O)N[C@@H](Cc2cc(F)cc(F)c2)[C@H](O)CNCc2cccc(OC)c2)c1 (stereo partly drawn) [Example 49, N^1-((2S,3R)-4-(3-methoxybenzylamino)-1-(3,5-difluorophenyl)-3-hydroxybutan-2-yl)-5-((Z)-1-(allyloxyimino)ethyl)-N^3-(1-(4-fluorophenyl)ethyl)isophthalamide TFA salt] | 100 to 1000 nM
4 | CO/N=C(/C)c1cc(C(=O)NC(C)c2ccc(F)cc2)cc(C(=O)N[C@@H](Cc2cc(F)cc(F)c2)[C@H](O)CNCc2cccc(OC)c2)c1 (stereo partly drawn) [Example 50, N^1-((2S,3R)-4-(3-methoxybenzylamino)-1-(3,5-difluorophenyl)-3-hydroxybutan-2-yl)-N^3-(1-(4-fluorophenyl)ethyl)-5-((Z)-1-(methoxyimino)ethyl)isophthalamide TFA salt] | < 100 nM
